# Key:
# [1] = system: BRMEC (Bovine Retinal Microvascular Endothelial Cell); assay: VEGF-induced BRMEC proliferation, modified MTT assay; type: cell-based
# Description: VEGF-induced BRMEC proliferation was measured using a modified MTT assay, BRMEC were plated at 3×10^3 onto a fibronectin/hyaluronic acid matrix in 96-well plates (Coming). Growth medium was added for two days, followed by serum free medium (SFM) overnight, then by test medium containing 0 or 25 ng/ml VEGF in 100 μl of SFM. After 24 hours at 37° C./5%CO2, 25 μl of MTT (3-(4,5-dimethylthiazol-2-yl)-2,5-diphenyl tetrazolium bromide) was added to each well and incubated for 4 hours. 100 μl of lysis buffer (20%SDS in 50:50 DMF:H2O+2.0% acetic acid and 0.05%HCl) was then added to each well, and the plates were incubated overnight at 37° C. and read (SPECTRAmax 190, Molecular Devices; Sunnyvale, Calif.) at 570 nm. For experiments utilizing AL06295, 25 ng/ml VEGF was combined with the compound at 0.1, 0.3, 1.0 or 3 μM.
# [2] = biological target: T1, COX-2 (Homo sapiens, UniProt P35354); conditions: known; cited from earlier work
# T1 sequence (P35354 18-604): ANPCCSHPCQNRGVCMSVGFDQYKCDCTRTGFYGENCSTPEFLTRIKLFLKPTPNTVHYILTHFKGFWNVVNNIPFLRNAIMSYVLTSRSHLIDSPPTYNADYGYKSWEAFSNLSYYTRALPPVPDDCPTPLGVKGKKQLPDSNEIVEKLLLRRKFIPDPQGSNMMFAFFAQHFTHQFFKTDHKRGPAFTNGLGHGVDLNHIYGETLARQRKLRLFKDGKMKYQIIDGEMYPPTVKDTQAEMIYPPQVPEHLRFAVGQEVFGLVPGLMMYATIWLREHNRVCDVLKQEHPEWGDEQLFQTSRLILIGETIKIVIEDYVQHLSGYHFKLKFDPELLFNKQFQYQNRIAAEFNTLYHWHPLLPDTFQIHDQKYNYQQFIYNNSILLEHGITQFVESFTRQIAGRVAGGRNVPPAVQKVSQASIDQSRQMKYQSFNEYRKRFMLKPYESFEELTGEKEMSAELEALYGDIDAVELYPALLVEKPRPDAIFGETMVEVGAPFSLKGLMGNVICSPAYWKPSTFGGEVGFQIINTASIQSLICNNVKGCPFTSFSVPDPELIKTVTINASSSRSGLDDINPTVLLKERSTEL
# [3] = biological target: COX-1 (Homo sapiens, UniProt P23219); conditions: known; cited from earlier work
# [4] = system: BRMEC (Bovine Retinal Microvascular Endothelial Cell); assay: VEGF-induced BRMEC capillary tube formation; type: cell-based
# Description: A mixture of 8 vol of Vitrogen 100 (Cohesion; Palo Alto, Calif.), 1 vol. of 0.2N NaOH, and 1 vol. of 10× RPMI-1640 medium containing 5 μg/ml fibronectin and 5 μg/ml laminin was prepared and 400 μl was added to each well of a 24-well plate. After incubating for 3 hrs at 37° C. to solidify the gel, 10^4 BRMEC were added to each well and incubated in growth medium for 3 days. Then the medium was carefully aspirated and 200 μl of the gel solution was layered on top of the cells and incubated at 37° C. for 1 hr. Following addition of growth medium for 24 hrs, 2 ml of test medium containing serum-free (SF) medium plus VEGF or SF medium plus VEGF and AL06295A were added to each well. The gels were assessed 24 hrs later.
# For quantitative analysis, six fields per treatment group were chosen from areas containing tubes; seven wells were used for each treatment. The lengths of the tubes were measured in digitized images, and the data are expressed in FIG. 2 as the total length per field of view in μm.
# [5] = system: choroidal NV; assay: choroidal NV in a mouse model, topical administration; type: in vivo; conditions: previous findings
# [6] = dose-response fashion, bovine retinal microvascular endothelial cell assay
# Sequence of COX-1 (P23219 24-599): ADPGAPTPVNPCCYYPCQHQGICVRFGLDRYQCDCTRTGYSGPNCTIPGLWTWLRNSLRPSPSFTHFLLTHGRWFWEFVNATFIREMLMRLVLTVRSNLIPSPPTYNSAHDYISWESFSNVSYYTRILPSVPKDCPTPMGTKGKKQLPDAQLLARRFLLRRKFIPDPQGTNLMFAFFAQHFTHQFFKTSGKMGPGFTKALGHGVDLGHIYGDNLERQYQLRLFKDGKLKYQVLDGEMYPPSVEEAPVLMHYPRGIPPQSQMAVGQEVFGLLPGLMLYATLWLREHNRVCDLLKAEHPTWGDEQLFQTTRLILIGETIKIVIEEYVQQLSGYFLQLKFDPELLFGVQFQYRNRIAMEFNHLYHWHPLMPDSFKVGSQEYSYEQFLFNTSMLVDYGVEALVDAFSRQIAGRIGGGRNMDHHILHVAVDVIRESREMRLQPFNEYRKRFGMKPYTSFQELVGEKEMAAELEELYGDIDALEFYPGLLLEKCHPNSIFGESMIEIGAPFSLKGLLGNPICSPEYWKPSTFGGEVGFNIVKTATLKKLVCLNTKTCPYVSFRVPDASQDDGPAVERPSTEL
Molecule,"VEGF induced BRMEC proliferation ([1]; 1 and 3 μM doses, 25 ng/ml VEGF, 24 hours, FIG. 1)","VEGF-induced cell proliferation [1, 6]",activity of COX-2 enzyme [2],activity of COX-1 enzyme [3],"VEGF induced capillary tube formation in BRMECs (total tube length per field of view) ([4]; all doses, SF medium plus VEGF, assessed 24 hrs later, FIG. 2)","VEGF-induced capillary tube formation [4, 6]",choroidal NV [5]
2-amino-3-benzoylbenzene acetic acid [amfenac],significantly reduce,inhibit,potently inhibit,potently inhibit,significantly and potently inhibit,inhibit,
NC(=O)Cc1cccc(C(=O)c2ccccc2)c1N [nepafenac],,,,,,,inhibited

# Reference: patent US20030207941A1, “Method of treating vascular endothelial growth factor mediated vascular disorders” (priority 2002, published 2003)
